Results reported in patent publication US4352885A, “Preparation of a novel NADP linked alcohol-aldehyde/ketone oxidoreductase from thermophilic anaerobic bacteria for analytical and commercial use” (Wisconsin Alumni Research Foundation, priority 1980, dated 1982).

System: T. brockii cultures
Assay: Reduction of ketones by T. brockii cultures
Format: cell-based, Thermoanaerobium brockii
Conditions: 0.5% ketone in TYEG medium; 60° C.; 15 hours incubation
Description: T. brockii was incubated at 60° C. in anaerobic culture tubes containing the previously described TYEG medium supplemented with 0.5% acetone or butanone. More than 50% of each ketone was converted to the corresponding alcohol after 15 hours incubation. Growth of the organism ceased once the pH fell below 5.0. The reaction is indicated in FIG. 1 when acetone is substituted for glucose to produce the corresponding secondary isopropanol.

| Molecule | Ketone converted to the corresponding alcohol |
| --- | --- |
| CCC(C)=O [CH3 COCH2 CH3, butanone] | More than 50% |
| CC(C)=O [CH3 COCH3, acetone] | More than 50% |

System: not listed separately
Assay: Thermostability and storage stability of the alcohol dehydrogenase
Format: physicochemical, Thermoanaerobium brockii
Conditions: millimolar concentrations
Description: The immobilized alcohol dehydrogenase of example 2 was packed in a small flow cell which allowed amperometric measurement of NAPDH concentration, using a glossy carbon and Ag/Cl electrode with 0.8 volt potential difference. A soltuion containing 0.05 mM NADP and varying concentrations of sec. butanol 10-100 micro molar were passed through the cell and gave a signal which depended on the concentration of alcohol. Alternatively, solutions that contained 10 mM NADPH and varying concentrations of acetone produced signals which decreased linearly with increasing concentrations of acetone at 0-200 mM. Potassium phosphate buffer at 500 mM and pH 7.5 was used in these experiments. The immobilized enzyme system for measurement of ketones and alcohols was stable for 2 weeks at room temperature.

| Molecule | Effect on thermostability of the enzyme |
| --- | --- |
| O=C(O)CN(CCN(CC(=O)O)CC(=O)O)CC(=O)O [EDTA, ethylenediamine-tetraacetic acid, reference compound] | did not decrease thermostability |

Same assay, conditions: room temperature; immobilized on sepharose in flow cell

| Molecule | Time stable [weeks] |
| --- | --- |
| immobilized enzyme system: T. brockii alcohol dehydrogenase immobilized on sepharose 4B-CnBr, packed in a flow cell (protein, UniProt P14941 1-352, looked up, immobilized on CNBr-Sepharose 4B) NADP-dependent isopropanol …: MKGFAMLSIGKVGWIEKEKPAPGPFDAIVRPLAVAPCTSDIHTVFEGAIGERHNMILGHEAVGEVVEVGSEVKDFKPGDRVVVPAITPDWRTSEVQRGYHQHSGGMLAGWKFSNVKDGVFGEFFHVNDADMNLAHLPKEIPLEAAVMIPDMMTTGFHGAELADIELGATVAVLGIGPVGLMAVAGAKLRGAGRIIAVGSRPVCVDAAKYYGATDIVNYKDGPIESQIMNLTEGKGVDAAIIAGGNADIMATAVKIVKPGGTIANVNYFGEGEVLPVPRLEWGCGMAHKTIKGGLCPGGRLRMERLIDLVFYKRVDPSKLVTHVFRGFDNIEKAFMLMKDKPKDLIKPVVILA | 2 |

Substrate: CCC(C)O
Assay: purified protein, by the assay type
Conditions: other: substrate concentration giving half-maximal velocity; pH 7.8; 40.0 °C

| Molecule | Km [µM] |
| --- | --- |
| NADP linked alcohol dehydrogenase (alcohol-aldehyde/ketone oxidoreductase) (Thermoanaerobacter brockii) (protein, of the T. brockii enzyme preparation with various alcohols and carbonyl compounds; made in house; host or cells: T. brockii itself (native host; partially purified enzyme)) MKGFAMLSIGKVGWIEKEKPAPGPFDAIVRPLAVAPCTSDIHTVFEGAIGERHNMILGHEAVGEVVEVGSEVKDFKPGDRVVVPAITPDWRTSEVQRGYHQHSGGMLAGWKFSNVKDGVFGEFFHVNDADMNLAHLPKEIPLEAAVMIPDMMTTGFHGAELADIELGATVAVLGIGPVGLMAVAGAKLRGAGRIIAVGSRPVCVDAAKYYGATDIVNYKDGPIESQIMNLTEGKGVDAAIIAGGNADIMATAVKIVKPGGTIANVNYFGEGEVLPVPRLEWGCGMAHKTIKGGLCPGGRLRMERLIDLVFYKRVDPSKLVTHVFRGFDNIEKAFMLMKDKPKDLIKPVVILA | 500 |

Target: T1, NADP linked alcohol dehydrogenase (secondary alcohol dehydrogenase activity) (Thermoanaerobacter brockii, UniProt P14941)
T1 construct: The NADP linked alcohol dehydrogenase derived from T. brockii can be immobilized; made in house; host or cells: T. brockii itself (native host)
T1 sequence (P14941 1-352): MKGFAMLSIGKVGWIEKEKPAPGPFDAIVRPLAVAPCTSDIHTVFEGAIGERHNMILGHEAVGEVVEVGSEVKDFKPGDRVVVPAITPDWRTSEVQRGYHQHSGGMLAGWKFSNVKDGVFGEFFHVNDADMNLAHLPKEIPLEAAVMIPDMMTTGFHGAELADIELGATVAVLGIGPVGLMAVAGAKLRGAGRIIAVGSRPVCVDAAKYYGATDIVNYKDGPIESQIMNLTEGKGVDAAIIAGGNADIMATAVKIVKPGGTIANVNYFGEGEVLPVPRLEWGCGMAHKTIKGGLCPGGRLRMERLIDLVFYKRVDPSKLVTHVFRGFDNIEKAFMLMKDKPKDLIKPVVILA
Assay: Effects of metal ions, complexing agents and thiol reagents on the enzyme
Format: biochemical, Thermoanaerobium brockii
Conditions: not given
Description: Metal ions, complexing agents and thiol reagents had the following effects.
Each of the above studies were performed at 40° C.

| Molecule | Inhibition of activity by complexing agents |
| --- | --- |
| Oc1cccc2cccnc12 [8-hydroxyquinoline] | did not significantly inhibit activity |
| O=C(O)CN(CCN(CC(=O)O)CC(=O)O)CC(=O)O [EDTA, ethylenediamine-tetraacetic acid, reference compound] | did not significantly inhibit activity |

Same assay, conditions: 0.05 mM; 40° C.

| Molecule | Reaction of thiol reagent with the enzyme (inhibition) |
| --- | --- |
| O=C(O)c1cc[c]([Hg][Cl])cc1 [PCMB, parachloromercuricbenzoate] | reacted instantly |

Same assay, conditions: 1 mM; 40° C.

| Molecule | Activation or inhibition by metal salts |
| --- | --- |
| [Ca+2].[Cl-].[Cl-] [CaCl2] | no significant activation or inhibition |
| [Cl][Cu][Cl] [CuCl2] | no significant activation or inhibition |
| [Cl-].[Cl-].[Mg+2] [MgCl2] | no significant activation or inhibition |
| [Cl-].[Cl-].[Zn+2] [ZnCl2] | no significant activation or inhibition |

Same assay, conditions: 1 mM; slow (15 min.); 40° C.

| Molecule | Inactivation of the enzyme |
| --- | --- |
| CCN1C(=O)C=CC1=O [NEM, N-ethylmaleimide] | inactivated the enzyme |

Same assay, conditions: 2 mM; 40° C.; read-out: Inhibitory effect on secondary alcohol dehydrogenase activity

| Molecule | inhibition at 2000 µM [%] |
| --- | --- |
| c1cnc2c(c1)ccc1cccnc12 [orthophenanthroline] | 15 to 20 |

Same assay, conditions: 5 mM DTT, within a few minutes; 1 mM ZnSO4; 40° C.

| Molecule | Reactivation of PCMB inhibited enzyme |
| --- | --- |
| O[C@H](CS)[C@H](O)CS (racemic) [DTT, dithiothreitol] | Complete reversal of the PCMB inhibition |
| O=S(=O)([O-])[O-].[Zn+2] [ZnSO4] | necessary for complete reactivation |

Target: T2, NADP linked alcohol dehydrogenase (alcohol-aldehyde/ketone oxidoreductase) (Thermoanaerobacter brockii, UniProt P14941)
T2 construct: of the T. brockii enzyme preparation with various alcohols and carbonyl compounds; made in house; host or cells: T. brockii itself (native host; partially purified enzyme)
T2 sequence (P14941 1-352): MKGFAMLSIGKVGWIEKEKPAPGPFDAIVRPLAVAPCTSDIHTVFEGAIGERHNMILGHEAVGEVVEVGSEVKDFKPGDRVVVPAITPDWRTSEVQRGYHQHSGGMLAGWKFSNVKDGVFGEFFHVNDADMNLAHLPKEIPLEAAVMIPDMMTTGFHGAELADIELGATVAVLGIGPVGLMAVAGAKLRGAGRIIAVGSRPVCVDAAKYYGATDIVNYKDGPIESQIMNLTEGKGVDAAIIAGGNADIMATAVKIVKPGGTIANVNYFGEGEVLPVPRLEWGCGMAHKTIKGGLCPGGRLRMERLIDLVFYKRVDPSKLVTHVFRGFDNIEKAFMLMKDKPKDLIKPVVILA
Assay: Specific activity of partially purified NADP linked alcohol dehydrogenase with alcohols and carbonyl compounds (absorbance at 334 nm)
Format: biochemical, Thermoanaerobium brockii
Conditions: Tris-Cl buffers; acetaldehyde reduction or sec-butanol oxidation

| Molecule | Optimum pH |
| --- | --- |
| CCC(C)O (centres unmarked) [CH3 CH2 CH(OH)CH3, sec-butanol] | 7.8-9.0 |
| CC=O [CH3 CHO, acetaldehyde] | 7.8 |

Same assay, conditions: as coenzymes instead of NADP/NADPH

| Molecule | Activity with the substance as coenzyme |
| --- | --- |
| NC(=O)c1ccc[n+]([C@@H]2O[C@H](COP(=O)([O-])OP(=O)(O)OC[C@H]3O[C@@H](n4cnc5c(N)ncnc54)[C@H](O)[C@@H]3O)[C@@H](O)[C@H]2O)c1 [NAD, reference compound] | No activity |
| NC(=O)C1=CN([C@@H]2O[C@H](COP(=O)(O)OP(=O)(O)OC[C@H]3O[C@@H](n4cnc5c(N)ncnc54)[C@H](O)[C@@H]3O)[C@@H](O)[C@H]2O)C=CC1 [NADH, reference compound] | No activity |

Same assay, conditions: coenzymes

| Molecule | Apparent Michaelis constant KM (coenzymes) |
| --- | --- |
| NC(=O)c1ccc[n+]([C@@H]2O[C@H](COP(=O)([O-])OP(=O)(O)OC[C@H]3O[C@@H](n4cnc5c(N)ncnc54)[C@H](OP(=O)(O)O)[C@@H]3O)[C@@H](O)[C@H]2O)c1 [NADP, Nicotinamide adenine dinucleotide phosphate] | in the micromolar range |
| NC(=O)C1=CN([C@@H]2O[C@H](COP(=O)(O)OP(=O)(O)OC[C@H]3O[C@@H](n4cnc5c(N)ncnc54)[C@H](OP(=O)(O)O)[C@@H]3O)[C@@H](O)[C@H]2O)C=CC1 [NADPH, reference compound] | in the micromolar range |

Same assay, conditions: saturating substrate (0.2-0.5 M alcohol or ketone, 10 mM acetaldehyde); 0.5 mM NADP or 0.2 mM NADPH; 0.1 M Tris-Cl pH 7.8

| Molecule | Activity V/mg. at 60° C. [μ Mole/Min./Mg Protein] |
| --- | --- |
| O=C1CC2CCC1C2 (centres unmarked) | 4.9 |
| 2-Cyclohexanone | 4.9 |
| CC1CCCCC1=O (centres unmarked) [2-Methyl Cyclohexanone] | 6.0 |
| CC1CCCC(=O)C1 (centres unmarked) [3-Methyl Cyclohexanone] | 2.0 |
| CC1CCC(=O)CC1 [4-Methyl Cyclohexanone] | 0.5 |
| C=CC(O)CC (centres unmarked) [CH2CHCH(OH)CH2 CH3] | 65.0 |
| CC(C)CO [CH3 CH2 (CH3)CH2 OH] | 3.1 |
| CCC(C)CO (centres unmarked) [CH3 CH2 CH2 (CH3)CH2 OH] | 3.0 |
| CCCCCO [CH3 CH2 CH2 CH2 CH2 OH] | 0.9 |
| CCCCO [CH3 CH2 CH2 CH2 OH] | 4.1 |
| CCCO [CH3 CH2 CH2 OH] | 3.6 |
| CCC(C)O (centres unmarked) [CH3 CH2 CH(OH)CH3, sec-butanol] | 78.0 |
| CCO [CH3 CH2 OH] | 3.2 |
| CC(O)CC(C)O (centres unmarked) [CH3 CH(OH)CH2 CH(OH)CH3] | 2.6 |
| CC(C)O [CH3 CH(OH)CH3, isopropanol] | 59.0 |
| CC=O [CH3 CHO, acetaldehyde] | 7.8 |
| CCC(C)=O [CH3 COCH2 CH3, butanone] | 7.6 |
| CC(C)=O [CH3 COCH3, acetone] | 10.4 |
| CO [CH3 OH] | 0 |
| O=C1CCCCCC1 [Cycloheptanone] | 3.0 |
| OC1CCCCC1 [Cyclohexanol] | 12.2 |
| O=C1CCCCC1 [Cyclohexanone] | 6.2 |
| O=C1CCCCCCC1 [Cyclooctanone] | 0 |
| O=C1CCCC1 [Cyclopentanone] | 6.0 |
| CC(=O)C1CC1 [Methyl cyclopropyl ketone] | 0.5 |

Same assay, conditions: tested as substrates

| Molecule | Reaction as substrate |
| --- | --- |
| C[C@H](O)C(=O)O [L-lactic acid] | did not react |
| OCC(O)CO [glycerol] | did not react |

Substrate: CC=O
Assay: as above
Format: biochemical, Thermoanaerobium brockii
Conditions: other: substrate concentration giving half-maximal velocity; pH 7.8; 40.0 °C

| Molecule | Km [µM] |
| --- | --- |
| NADP linked alcohol dehydrogenase (alcohol-aldehyde/ketone oxidoreductase) (Thermoanaerobacter brockii) (protein, of the T. brockii enzyme preparation with various alcohols and carbonyl compounds; made in house; host or cells: T. brockii itself (native host; partially purified enzyme)) MKGFAMLSIGKVGWIEKEKPAPGPFDAIVRPLAVAPCTSDIHTVFEGAIGERHNMILGHEAVGEVVEVGSEVKDFKPGDRVVVPAITPDWRTSEVQRGYHQHSGGMLAGWKFSNVKDGVFGEFFHVNDADMNLAHLPKEIPLEAAVMIPDMMTTGFHGAELADIELGATVAVLGIGPVGLMAVAGAKLRGAGRIIAVGSRPVCVDAAKYYGATDIVNYKDGPIESQIMNLTEGKGVDAAIIAGGNADIMATAVKIVKPGGTIANVNYFGEGEVLPVPRLEWGCGMAHKTIKGGLCPGGRLRMERLIDLVFYKRVDPSKLVTHVFRGFDNIEKAFMLMKDKPKDLIKPVVILA | 150 |
